Reference: ChEMBL document CHEMBL2449286, “Structure-activity data for a series of P-glycoprotein inhibitors (Supplementary Data to CHEMBL1142990)”

Target: ATP-dependent translocase ABCB1 (Homo sapiens, UniProt P08183)
Sequence (P08183 whole entry): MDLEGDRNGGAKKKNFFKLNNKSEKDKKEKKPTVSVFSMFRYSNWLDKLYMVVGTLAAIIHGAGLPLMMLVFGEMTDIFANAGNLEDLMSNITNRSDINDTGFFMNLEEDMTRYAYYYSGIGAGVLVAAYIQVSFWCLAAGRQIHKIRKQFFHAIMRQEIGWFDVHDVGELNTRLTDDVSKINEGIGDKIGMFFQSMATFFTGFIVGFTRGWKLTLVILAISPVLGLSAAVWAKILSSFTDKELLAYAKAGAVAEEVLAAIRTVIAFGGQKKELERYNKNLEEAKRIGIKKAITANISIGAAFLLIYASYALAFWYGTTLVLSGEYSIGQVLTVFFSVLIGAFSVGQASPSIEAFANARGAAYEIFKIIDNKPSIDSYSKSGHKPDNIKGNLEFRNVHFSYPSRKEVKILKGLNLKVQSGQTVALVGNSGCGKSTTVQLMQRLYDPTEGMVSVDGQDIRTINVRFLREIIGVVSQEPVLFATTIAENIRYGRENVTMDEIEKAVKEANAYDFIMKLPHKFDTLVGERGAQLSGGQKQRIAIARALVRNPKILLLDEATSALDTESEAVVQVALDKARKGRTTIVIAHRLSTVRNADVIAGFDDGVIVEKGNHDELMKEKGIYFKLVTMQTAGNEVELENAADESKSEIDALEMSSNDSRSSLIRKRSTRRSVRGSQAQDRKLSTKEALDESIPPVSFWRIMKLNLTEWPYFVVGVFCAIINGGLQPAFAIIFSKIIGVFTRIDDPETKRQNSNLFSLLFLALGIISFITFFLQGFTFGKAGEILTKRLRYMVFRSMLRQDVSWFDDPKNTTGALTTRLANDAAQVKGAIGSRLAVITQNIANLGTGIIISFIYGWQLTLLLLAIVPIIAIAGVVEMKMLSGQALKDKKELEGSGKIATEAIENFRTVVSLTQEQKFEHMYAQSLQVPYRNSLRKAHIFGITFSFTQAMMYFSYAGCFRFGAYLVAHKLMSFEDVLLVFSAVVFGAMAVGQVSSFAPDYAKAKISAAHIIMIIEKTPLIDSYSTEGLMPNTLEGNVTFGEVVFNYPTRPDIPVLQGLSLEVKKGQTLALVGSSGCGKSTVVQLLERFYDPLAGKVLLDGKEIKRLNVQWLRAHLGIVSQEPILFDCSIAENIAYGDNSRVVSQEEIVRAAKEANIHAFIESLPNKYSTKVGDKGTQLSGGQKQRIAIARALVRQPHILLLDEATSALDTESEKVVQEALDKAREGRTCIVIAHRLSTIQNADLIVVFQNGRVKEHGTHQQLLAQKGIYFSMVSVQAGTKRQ

SMILES | EC50 [µM]
Cc1ccc(C(=O)N2c3ccccc3[C@H](NCc3ccccc3)[C@@H](O)[C@H]2C)cc1 | 3.24
CCc1ccc(N2C(=O)c3ccccc3N[C@H]2c2ccc(OCC(C)C)cc2)cc1 | 1.2
CN[C@H]1c2cc(C#N)ccc2OC(C)(C)[C@@H]1O | 309
COc1ccccc1N1CCN(C[C@@H](O)c2oc3ccccc3c2CCc2ccccc2)CC1 | 0.178
CC(C)(C)OC(=O)CN(Cc1ccccc1)[C@H]1c2cc(C#N)ccc2OC(C)(C)[C@@H]1O | 2
Cc1c(C(=O)CCc2ccccc2)c(=O)n(-c2ccccc2)n1C[C@H](O)CNC(C)(C)C | 7.76
CCCN(C)C[C@@H](O)COc1ccccc1C(=O)CCc1ccccc1 | 0.417
O=C1C[C@H](CN2CCN(Cc3ccccc3)CC2)Oc2ccccc21 | 8.91
O=C(CCc1ccccc1)c1ccccc1OC[C@H](O)CNC(c1ccccc1)c1ccccc1 | 10.5
CC(C)[C@@H]1C(=O)O[C@H]2[C@@H](c3cc(C#N)ccc3OC2(C)C)N1C | 79.4
Cc1ccc(C(=O)N2c3ccccc3[C@H](N3CCN(Cc4ccccc4)CC3)[C@@H](O)[C@H]2C)cc1 | 0.427
O=C(CCc1ccccc1)c1ccccc1OC[C@H](O)CN1CCC(O)(c2ccccc2)CC1 | 0.0575
CC1(C)Oc2ccc(C#N)cc2[C@H](N(CCO)Cc2ccccc2)[C@H]1O | 5.37
O=C1C[C@H](CN2CCOCC2)Oc2ccccc21 | 1260
Cc1c(C(=O)c2ccccc2)c(=O)n(-c2ccccc2)n1C[C@H](O)CN(C(C)C)C(C)C | 15.8
O[C@H](COc1ccccc1[C@H](O)CCc1ccccc1)CN1CCCCC1 | 1.51
CC(C)(C)c1ccc(N2C(=O)c3ccccc3N[C@H]2c2ccc3c(c2)OCO3)cc1 | 0.741
CC[C@H](C)c1ccc(N2C(=O)c3ccccc3N[C@H]2c2ccc(OC)cc2)cc1 | 0.759
CC(C)[C@@H](N[C@H]1c2ccccc2OC(C)(C)[C@@H]1O)C(=O)OC(C)(C)C | 1.35
CC(C)O[C@H](CCc1ccccc1)c1ccccc1OC[C@H](O)CN1CCCCC1 | 0.457
O=C(c1ccccc1)c1cccc(OC[C@H](O)CN2CCCCC2)c1 | 3.55
O=C(CCc1ccccc1)c1cccc(OC[C@H](O)CNCCC(c2ccccc2)c2ccccc2)c1 | 0.191
CC(C)(C)O[C@H](CCc1ccccc1)c1ccccc1OC[C@H](O)CN1CCCCC1 | 0.398
CCN(CC)CCC[C@H](C)N[C@@H]1c2ccccc2N[C@H](C)[C@@H]1OC(=O)c1ccc(C)cc1 | 0.331
CC(C)N(C[C@@H](O)COc1ccccc1C(=O)CCc1ccccc1)C(C)C | 0.38
CC(=O)c1cccc(OC[C@H](O)CN2CCOCC2)c1 | 129
CC(C)[C@H](N[C@H]1c2cc(C#N)ccc2OC(C)(C)[C@@H]1O)C(=O)O | 2.69

SMILES | EC50 [µM]
O=C(c1ccccc1)c1ccccc1OC[C@H](O)CN1CCC(O)(c2ccccc2)CC1 | 0.309
CC(C)[C@H]1N[C@H]2c3cc(C#N)ccc3OC(C)(C)[C@@H]2OC1=O | 9.55
CC(C)[C@@H](C(=O)OC(C)(C)C)N(C)[C@@H]1c2cc(C#N)ccc2OC(C)(C)[C@H]1O | 0.955
C[C@H](N[C@@H]1c2cc(C#N)ccc2OC(C)(C)[C@H]1O)C(=O)OC(C)(C)C | 45.7
CCC/N=C(/CCc1ccccc1)[C@H]1C(=O)N(c2ccccc2)N=C1C | 3.72
Cc1ccc(-c2n[nH]c3c2[C@@H](c2ccc(N(C)C)cc2)C(C#N)=C(N)O3)cc1 | 3.09
CC(C)(C)OC(=O)C(Cc1ccccc1)N[C@@H]1c2cc(C#N)ccc2OC(C)(C)[C@H]1O (stereo partly drawn) | 0.55
CC(C)[C@H](N[C@H]1c2cc(C#N)ccc2OC(C)(C)[C@@H]1O)C(=O)OC(C)(C)C | 1.78
Cc1ccc(C(=O)O[C@@H]2[C@H](N3CCCC3)c3ccccc3N[C@@H]2C)cc1 | 4.68
Cc1c(C(=O)CCc2ccccc2)c(=O)n(-c2ccccc2)n1C[C@H](O)CNC(C)C | 11.7
Cc1c(C(=O)c2cccs2)c(=O)n(-c2ccccc2)n1C[C@H](O)CNC(C)C | 123
CN(CCN(C)S(=O)(=O)c1cccc2c(N(C)C)cccc12)C[C@@H](O)COc1ccccc1C(=O)c1ccccc1 | 1.82
O[C@@H](COc1ccccc1[C@H](O)CCc1ccccc1)CN1CCCCC1 | 0.851
O=C1CCc2cccc(OC[C@H](O)CN3CCCCC3)c21 | 9.77
C[C@@H](C(=O)OC(C)(C)C)N(C)[C@@H]1c2cc(C#N)ccc2OC(C)(C)[C@H]1O | 3.98
CN[C@@H]1c2cc(C#N)ccc2OC(C)(C)[C@H]1O | 1700
CC(C)N(C[C@@H](O)COc1ccc(OCc2ccccc2)cc1C(=O)CCc1ccccc1)C(C)C | 0.0813
CN(CCO)[C@H]1c2cc(C#N)ccc2OC(C)(C)[C@@H]1O | 97.7
O=C([C@@H]1Oc2ccccc2[C@@H]1CCc1ccccc1)N1CCCCC1 | 6.61
O=C(CCc1ccccc1)c1cccc(OC[C@H](O)CN2CCCCC2)c1 | 0.427
CC1(C)Oc2ccc(C#N)cc2[C@H](N2CCN(Cc3ccccc3)CC2)[C@H]1O | 0.851
CC1(C)Oc2ccc(C#N)cc2[C@H]2[C@H]1OCCN2Cc1ccccc1 | 19.5
C[C@@H]1N[C@H]2c3cc(C#N)ccc3OC(C)(C)[C@@H]2OC1=O | 77.6
CC(C)[C@@H](CCl)N(C)[C@@H]1C2C=C(C#N)C=CC2OC(C)(C)[C@H]1O (stereo partly drawn) | 2.24
CCN(CC)C[C@@H](O)COc1ccccc1C(=O)CCc1ccccc1 | 0.912
C[C@@H](C(=O)OC(C)(C)C)N(C)[C@H]1c2cc(C#N)ccc2OC(C)(C)[C@@H]1O | 3.72
O=C1C[C@H](CN2CCCCC2)Oc2ccccc21 | 178

Now from value to compound:

EC50 [µM] | SMILES
0.0447 | Cc1ccccc1N1CCN(C[C@@H](O)COc2ccccc2[C@@H](O)CCc2ccccc2)CC1
0.355 | CC(=O)c1ccccc1OC[C@H](O)CN1CCC(Cc2ccccc2)CC1
9.55 | O[C@@H](COc1ccccc1[C@H](O)CCc1ccccc1)CN1CCOCC1
0.38 | Cc1ccc(NC(=S)N2CCN(C[C@@H](O)COc3ccccc3C(=O)c3ccccc3)CC2)cc1
0.141 | O=C1c2cccc(OC[C@H](O)CN3CCCCC3)c2C[C@H]1Cc1ccccc1
0.129 | O=C(CCc1ccccc1)c1ccccc1OC[C@H](O)CN1CCN(C(=O)c2ccccc2)CC1
0.851 | COc1ccc(OC[C@H](O)CN2CCN(c3ccccc3C)CC2)c(C(C)=O)c1
0.138 | Cc1cccc(N2CCN(C[C@@H](O)COc3cccc(C(=O)CCc4ccccc4)c3)CC2)c1C
0.479 | Cc1cccc(N2CCN(C[C@@H](O)COc3ccc(C(=O)CCc4cccc5ccccc45)cc3)CC2)c1C
0.166 | Cc1cccc(N2CCN(C[C@@H](O)COc3cccc4c3C(=O)[C@@H](Cc3ccccc3)C4)CC2)c1C
0.832 | CCC(=O)c1ccccc1OC[C@H](O)CN1CCN(c2ccc(F)cc2)CC1
0.178 | COc1ccc(OC[C@H](O)CN2CCN(c3ccccc3C)CC2)c(C(=O)CCc2ccccc2)c1
1.12 | O=C(CCc1ccccc1)c1cccc(OC[C@H](O)CN2CCN(c3ccc(F)cc3)CC2)c1
9.55 | CC(=O)c1cc(C)ccc1OC[C@H](O)CN1CCN(C[C@H](O)COc2ccccc2C(=O)c2ccccc2)CC1
2.51 | O=C(CCc1ccccc1)c1ccc(OC[C@H](O)CN2CCN(c3ccc(F)cc3)CC2)cc1
5.37 | O=C(c1ccccc1)c1ccc(OC[C@H](O)CN2CCOCC2)cc1
33.1 | CCC(=O)c1ccc(OC[C@H](O)CN2CCCCC2)cc1
14.5 | CCC(=O)c1ccccc1OC[C@H](O)CN1CCCCC1
0.0129 | Cc1ccccc1N1CCN(C[C@@H](O)COc2ccccc2C(=O)CCc2ccc(N(C)C)cc2)CC1
1.74 | O=C(CCc1ccccc1)c1cc(O)ccc1OC[C@H](O)CN1CCCCC1
0.501 | Cc1ccccc1N1CCN(C[C@@H](O)COc2ccc(C(=O)c3ccccc3)cc2)CC1
0.38 | CC(=O)c1cccc(OC[C@H](O)CN2CCN(c3cccc(C)c3C)CC2)c1

EC50 [µM] | SMILES
0.257 | COc1ccc(N2CCN(C[C@@H](O)COc3ccccc3C(=O)CCc3ccccc3)CC2)cc1
0.0269 | Cc1ccccc1N1CCN(C[C@@H](O)COc2ccccc2C(=O)CCc2ccccc2)CC1
0.295 | O=C1c2c(cccc2OC[C@H](O)CN2CCOCC2)C[C@@H]1Cc1ccccc1
0.224 | CO[C@H](CCc1ccccc1)c1ccccc1OC[C@H](O)CN1CCN(c2ccc(F)cc2)CC1
0.977 | O=C(c1ccccc1)c1ccc(OC[C@H](O)CN2CCN(c3ccc(F)cc3)CC2)cc1
1.55 | O=C(CCc1cccc2ccccc12)c1ccc(OC[C@H](O)CN2CCOCC2)cc1
0.263 | Cc1cccc(N2CCN(C[C@@H](O)COc3cccc(C(=O)CCc4cccc5ccccc45)c3)CC2)c1C
0.0257 | Cc1ccc(OC[C@H](O)CN2CCN(c3ccccc3C)CC2)c(C(=O)CCc2ccccc2)c1
0.0178 | O=C(CCc1cccc2ccccc12)c1ccccc1OC[C@H](O)CN1CCN(c2ccc(F)cc2)CC1
0.295 | COc1ccc(C(=O)CCc2ccccc2)c(OC[C@H](O)CN2CCCCC2)c1
0.0191 | Cc1ccccc1N1CCN(C[C@@H](O)COc2ccccc2C(=O)CCc2ccc(Cl)cc2)CC1
31.6 | CC(=O)c1ccccc1OC[C@H](O)CN1CCCCC1
3.47 | COc1ccc(N2CCN(C[C@@H](O)COc3ccc(C)cc3C(C)=O)CC2)cc1
0.389 | COc1ccc(N2CCN(C[C@@H](O)COc3cccc4c3C(=O)[C@@H](Cc3ccccc3)C4)CC2)cc1
1.55 | CC(=O)c1ccc(OC[C@H](O)CN2CCN(c3ccccc3C)CC2)cc1
0.617 | O=C(CCc1ccccc1)c1ccccc1OC[C@H](O)CN1CCN(c2ccccc2)CC1
0.0398 | COc1ccc(C(=O)CCc2ccc(N(C)C)cc2)c(OC[C@H](O)CN2CCN(c3ccccc3C)CC2)c1
0.204 | Cc1ccccc1N1CCN(C[C@@H](O)COc2cccc(C(=O)c3ccccc3)c2)CC1
0.186 | O[C@@H](COc1ccccc1[C@@H](O)CCc1ccccc1)CN1CCN(Cc2ccccc2)CC1
0.676 | COc1cccc(N2CCN(C[C@@H](O)COc3ccccc3C(=O)CCc3ccccc3)CC2)c1
3.63 | O=C(CCc1ccccc1)c1ccccc1OC[C@H](O)CN1CCOCC1
3.47 | O=C(CCc1ccccc1)c1cccc(OC[C@H](O)CN2CCOCC2)c1
